Test [1] deals with gilts. Briefly: Example 1: estrus observation (boar exposure, back pressure) after triptorelin gel. Conditions: 200 mcg T at 120 h post-MATRIX; raw average; PTK 1-07 (rep 3). The class given is in vivo, swine. The procedure:
All gilts were individually fed MATRIX® as a top-dress for 14 days at the recommended rate of 15 mg/gilt/day. Gilts were withdrawn from MATRIX® feeding (last top feed in the morning on Day 0) and allotted to treatments. Controls were treated with a 1.2% methylcellulose gel formulation without triptorelin at 96 hours following MATRIX® withdrawal (last top-dress). The remaining gilts received 200 mcg triptorelin, as the acetate, in a 1.2% methylcellulose gel formulation intravaginally at various times after MATRIX® withdrawal. The four treatments were: 1) vehicle gel (VG) treatment at 96 hours after MATRIX® withdrawal, 2) triptorelin gel (TG) treatment at 96 hours after MATRIX® withdrawal, 3) TG treatment at 120 hours after MATRIX® withdrawal and 4) TG treatment at 144 hours after MATRIX® withdrawal. All gilts were monitored for their estrous and ovulatory status as described below. Gilts included in replicate 1 were selected from terminal line commercial production gilts located in grow/finish barns. Sexual maturity, as indicated by one or more estrous periods, was not verified prior to the start of MATRIX® feeding. Gilts included in replicate 2 were selected from a maternal line gilt population. Sexual maturity was verified by at least one estrous period verified and recorded prior to starting MATRIX® feeding. […]
Data were analyzed using the Mixed Models procedures of SAS. […]

The subject of test [2] is gilts. Briefly: Example 5: estrus observation after triptorelin gel dose groups. It counts as in vivo, swine. Conditions: raw average, PTK 2-07. Here is the method:
All gilts were individually fed MATRIX® as a top-dress for 14 or 15 days at the recommended rate of 15 mg/gilt/day. Gilts were withdrawn from MATRIX® feeding (last top-dress in the morning on Day 0) and allocated to each of the following treatments. Controls were vehicle gel treated (vehicle gel without triptorelin) at 120 (+/−2) hours following MATRIX® withdrawal (last top dress). The other gilts were given 100, 200 or 400 mcg triptorelin as the acetate in a methylcellulose gel formulation 120 (+/−2) hours following MATRIX® withdrawal. The four treatments were: • 1. Vehicle gel (VG): vehicle gel without triptorelin at 120 (+/−2) hours after MATRIX® withdrawal. • 2. TG 100: 100 mcg (2 mL 50 mcg/mL) triptorelin gel at 120 (+/−2) hours after MATRIX® withdrawal. • 3. TG 200: 200 mcg (2 mL 100 mcg/mL) triptorelin gel at 120 (+/−2) hours after MATRIX® withdrawal. • 4. TG 400: 400 mcg (2 mL 200 mcg/mL) triptorelin gel at 120 (+/−2) hours after MATRIX® withdrawal.
Triptorelin (pGlu-His-Trp-Ser-Tyr-D-Trp-Leu-Arg-Pro-Gly-NH2) was supplied in the acetate form, from Bachem, Torrance, Calif. (Item H-4075 CGMP grade). Triptorelin gel (100-400 mcg/2 mL dose) was formulated by Argenta (Auckland, NZ) in a gel composed of Methocel Premium A4000 (Dow Chemical), citrate buffer (pH 5.5), NaCl, methionine, and methyl and propyl parabens. Fifty-four milliliters of triptorelin gel (100 mcg triptorelin acetate/mL) was packaged in Amber Borosilicate Glass Serum Vials (610206-50) with a Gray Butyl Pharmaceutical Serum Vial Stopper (73828A-SS) with a Standard Aluminum Seal (SAS20NAT). […] MATRIX® was supplied as the US commercially available form.
For post-treatment estrus detection, gilts were housed in individual pens. Boars were housed in separate rooms, and/or at least 12 m away and downwind. To elicit signs of estrus, a mature boar was walked slowly in the alley in front of the gilts' crates, exposing each test gilt to visual, auditory and olfactory signals from the boar for up to 5 minutes. In keeping with standard practice at commercial farms, while the boar was near the front of the gilt's crate, estrus was tested by an experienced person applying back pressure to the midsection of the gilt combined with side rubbing. Estrus was confirmed when a gilt stood rigidly to the back pressure, with no vocalization and with some indication of an ear reflex. Gilts were not exposed to boars during the first three days after withdrawal of MATRIX® (Day 0 to Day 2). Estrus detection was performed daily on all gilts from Day 3 to Day 7.
A single 2 mL dose of triptorelin gel or vehicle gel was deposited within approximately 1-2 cm posterior to the cervix with a catheter similar to those used for artificial insemination. The dose was delivered using a standard multi-dose applicator attached to the catheter. […]

On to `CC(C)C[C@H](NC(=O)[C@@H](Cc1c[nH]c2ccccc12)NC(=O)[C@H](Cc1ccc(O)cc1)NC(=O)[C@H](CO)NC(=O)[C@H](Cc1c[nH]c2ccccc12)NC(=O)[C@H](Cc1c[nH]cn1)NC(=O)[C@@H]1CCC(=O)N1)C(=O)N[C@@H](CCCNC(=N)N)C(=O)N1CCC[C@H]1C(=O)NCC(N)=O` [T, pGlu-His-Trp-Ser-Tyr-D-Trp-Leu-Arg-Pro-Gly-NH2], for which the results for the “Estrous Expression (%)” value in test [1], in test [2] (100 mcg T at 120 h post-MATRIX) and in test [2] (200 mcg T at 120 h post-MATRIX) were 100.0%, 75.0% and 81.0%, respectively.

Values taken from patent US9724380B2, “Method and compositions for synchronizing time of insemination in gilts” (JBS UNITED ANIMAL HEALTH II LLC, priority 2012, dated 2017).
